Test results taken from patent US20130072505A1, “6,9-Disubstituted Purine Derivatives and Their Use for Treating Skin” (priority 2006, published 2013).

Legend:
human osteosarcoma (HOS) = test: in vitro cytotoxic activity, Calcein AM microtiter assay; assay type: cell-based; settings: 72 hours, highest concentration 166.7 μM
Experimental: (§1) In vitro cytotoxic activity of several of the 6,9-disubstituted purine derivatives of this invention was determined using a microtiter assay with Calcein AM and a panel of cell lines of different histogenetic and species origin; kinetin was also examined as a control. Because only metabolically active cells cleave Calcein AM (tetraacetoxymethyl ester of calcein), the intracellular concentration of calcein corresponds to the number of vital cells in the culture.
(§2) The following cell lines were used: human osteosarcoma (HOS); breast carcinoma MCF-7; human myeloid leukemia K-562; and mouse fibroblasts NIH3T3. The cells were maintained in Nunc/Corning 80 cm^2 plastic tissue culture flasks and cultured in cell culture medium (DMEM with 5 g/l glucose, 2 mM glutamine, 100 U/ml penicillin, 100 μg/ml streptomycin, 10% fetal calf serum, and sodium bicarbonate).
(§3) The cell suspensions were prepared and diluted according to the particular cell type and the expected target cell density (2.500-30.000 cells per well based on cell growth characteristics) were added by pipette (80 μl) into 96/well microtiter plates. Inoculates were allowed a pre-incubation period of 24 hours at 37° C. and 5% CO2 for stabilization. Four-fold dilutions of the intended test concentration were added at time zero in 20 μl aliquots to the microtiter plate wells. The test compounds were generally evaluated at six 4-fold dilutions. The highest well concentration used in the present study was 166.7 μM. All samples were examined in triplicates. Incubations of cells with the tested compounds was for 72 hours at 37° C., in 5% CO2 atmosphere and 100% humidity. At the end of the incubation period, Calcein AM was added to a final concentration of 1 μg/ml incubated for 1 hour. Fluorescence intensity (FI) was measured with a Labsystem FIA Reader Fluoroscan Ascent (UK). The cell survival (GI50) was calculated using the following equation: GI50=([…])/(mean FIcontrol well−mean FIblank)×100%. The GI50 value, the drug concentration lethal to 50% of the cells, was calculated from the obtained dose response curves.

breast carcinoma MCF-7 = test: as above; assay type: cell-based; settings: Homo sapiens, MCF7; 72 hours; highest concentration 166.7 μM
Experimental: as §1, §2, §3

[1] = test system: human myeloid leukemia K-562; test: as above; assay type: cell-based; settings: K562, 72 hours, highest concentration 166.7 μM
Experimental: as §1, §2, §3

mouse fibroblasts NIH3T3 = test: as above; assay type: cell-based; settings: NIH3T3, 72 hours, highest concentration 166.7 μM, read-out: GI50 NIH-3T3
Experimental: as §1, §2, §3

[2] = test system: Rat C6 glioma (ATCC No. CCL107); test: anti-inflammatory activity: isoproterenol-induced intracellular cAMP synthesis; assay type: cell-based; settings: cAMP after 30 min with (−)-isoproterenol
Experimental: Anti-inflammatory activity of several of the 6,9-disubstituted purine derivatives of this invention was determined; kinetin was also evaluated as a control. Rat C6 glioma (ATCC No. CCL107) was cultivated in monolayer in serum-free chemically defined medium containing Ham's F10/minimal essential medium (1:1 v/v), 2 mM L-glutamine, 1% (v/v) minimal essential medium vitamins (100×), 1% (v/v) minimal essential medium nonessential amino acids (100×), 100 U/ml penicillin, […], and 30 nM sodium selenite. Incubation was performed at 37° C. in a humidified atmosphere. The assays were performed in the logaritmic growth phase at a density of 2.5×10^5 cells/cm^2. Intracellular cAMP synthesis was induced by addition of 5 mM (−)-isoproterenol; various amounts of test compounds were added at the same time as the (−)-isoproterenol. After 30 min incubation at 37° C., the medium was removed and the cellular amount of cAMP was determined using the cAMP-enzyme immunoassay kit from Amersham. The I50 value was determined from a dose-response curve in duplicate.

[3] = test system: Female SKH-1 hairless mice; test: topical skin anti-aging treatment, hairless mouse model; assay type: in vivo; settings: 3 weeks
From the text: The safety and efficacy of the 6,9-disubstituted purine derivatives of this invention as topical skin anti-aging treatments were examined using the hairless mouse model (a well established model for studying the treatments of photoaging). Female SKH-1 hairless mice (5 weeks old, 20-25 grams, Charles River Laboratories, Wilmington, Mass.) were individually housed in filter-top cages, and acclimated for 5-7 days after delivery. […] Water and mouse chow are provided ad libitum. The experimental groups (6 mice per group) included the following treatments: (1) Untreated control; (2) Vehicle control (MillCreek Lotion); […] The various treatments were applied daily (Monday-Friday) for 3 weeks to the dorsal skin (about 2 cm×2 cm) of the hairless mice at a dosage rate of about 20 mg. At baseline (prior to the 1st treatment), and weekly, the dorsal skin was measured for transepidermal water loss (TEWL), skin moisture content, and skin elasticity. […] This instrument was equipped with dual probes which are placed on the skin surface and a quantitative measurement taken of the respective parameters and the measurements recorded on an integrated computer. […] The slides were weakly counter stained in Mayer's hematoxylin and scored under a light microscope for the number of BrdU-positive cells per mm of epidermis for each section. […]

## c1coc(CNc2ncnc3c2ncn3C2CCCCO2)c1 (centres unmarked) [6-furfurylamino-9-(2-tetrahydropyranyl)purine]
Human osteosarcoma (HOS)
  GI50: > 167 µM
Breast carcinoma MCF-7
  GI50: > 167 µM
[1]
  GI50: > 167 µM
Mouse fibroblasts NIH3T3
  GI50: > 167 µM
[2]; Rattus norvegicus, C6 glioma, 0.5 h, read-out: Anti-inflammatory Activity I50
  IC50: 13 µM
[2]
  Anti-inflammatory Activity Effect: Inhibition
[3]; topical daily (Monday-Friday), Grade 0=no response to Grade 6=necrosis
  erythema (irritation) score: < 1 Grade
[3]; topical daily
  Skin Moisture Content (skin conductance): one of the highest increases in skin moisture
